# Reference: ChEMBL document CHEMBL3872249, “Computer design, synthesis, and bioactivity analyses of drugs like fingolimod used in the treatment of multiple sclerosis” (Bioorg Med Chem, 2017)
# Activity calls are given as the source filed them. The rule behind the calls is not given here.
# How the values were obtained:
# [1] = system: SK-N-SH; experiment: Effect on MMP9 mRNA expression in human SK-N-SH cells at EC10 by qPCR method relative to beta-actin; format: functional
# [2] = system: U-118-MG; experiment: Effect on CYP19A1 mRNA expression in human U118MG cells at EC10 by qPCR method relative to beta-actin; format: functional
# [3] = system: SK-N-SH; experiment: Effect on IFNG mRNA expression in human SK-N-SH cells at EC10 by qPCR method relative to beta-actin; format: functional
# [4] = system: SK-N-SH; experiment: Effect on ICAM1 mRNA expression in human SK-N-SH cells at EC10 by qPCR method relative to beta-actin; format: functional
# [5] = system: SK-N-SH; experiment: Effect on CFLAR mRNA expression in human SK-N-SH cells at EC10 by qPCR method relative to beta-actin; format: functional
# [6] = system: SK-N-SH; experiment: Effect on VEGFA mRNA expression in human SK-N-SH cells at EC10 by qPCR method relative to beta-actin; format: functional
# [7] = system: U-118-MG; experiment: Effect on FGF2 mRNA expression in human U118MG cells at EC10 by qPCR method relative to beta-actin; format: functional
# [8] = system: SH-SY5Y; experiment: Effect on AKT1 mRNA expression in human SH-SY5Y cells at EC10 by qPCR method relative to beta-actin; format: functional
# [9] = system: SH-SY5Y; experiment: Effect on COL1A1 mRNA expression in human SH-SY5Y cells at EC10 by qPCR method relative to beta-actin; format: functional
# [10] = system: SK-N-SH; experiment: Effect on IL6 mRNA expression in human SK-N-SH cells at EC10 by qPCR method relative to beta-actin; format: functional
# [11] = system: SH-SY5Y; experiment: Effect on FGF2 mRNA expression in human SH-SY5Y cells at EC10 by qPCR method relative to beta-actin; format: functional
# [12] = system: SK-N-SH; experiment: Effect on TSHR mRNA expression in human SK-N-SH cells at EC10 by qPCR method relative to beta-actin; format: functional
# [13] = system: SH-SY5Y; experiment: Effect on TSHR mRNA expression in human SH-SY5Y cells at EC10 by qPCR method relative to beta-actin; format: functional
# [14] = system: U-118-MG; experiment: Effect on TSHR mRNA expression in human U118MG cells at EC10 by qPCR method relative to beta-actin; format: functional
# [15] = system: SK-N-SH; experiment: Effect on FASLG mRNA expression in human SK-N-SH cells at EC10 by qPCR method relative to beta-actin; format: functional
# [16] = system: U-118-MG; experiment: Effect on DRD2 mRNA expression in human U118MG cells at EC10 by qPCR method relative to beta-actin; format: functional
# [17] = system: SH-SY5Y; experiment: Effect on IL10 mRNA expression in human SH-SY5Y cells at EC10 by qPCR method relative to beta-actin; format: functional
# [18] = system: SK-N-SH; experiment: Effect on PIK3CG mRNA expression in human SK-N-SH cells at EC10 by qPCR method relative to beta-actin; format: functional
# [19] = system: SK-N-SH; experiment: Effect on ADORA2A mRNA expression in human SK-N-SH cells at EC10 by qPCR method relative to beta-actin; format: functional
# [20] = system: SK-N-SH; experiment: Effect on EDNRA mRNA expression in human SK-N-SH cells at EC10 by qPCR method relative to beta-actin; format: functional
# [21] = system: SH-SY5Y; experiment: Effect on BCL2 mRNA expression in human SH-SY5Y cells at EC10 by qPCR method relative to beta-actin; format: functional
# [22] = system: SK-N-SH; experiment: Effect on ADRB2 mRNA expression in human SK-N-SH cells at EC10 by qPCR method relative to beta-actin; format: functional
# [23] = system: U-118-MG; experiment: Effect on MYC mRNA expression in human U118MG cells at EC10 by qPCR method relative to beta-actin; format: functional
# [24] = system: SH-SY5Y; experiment: Effect on MAG mRNA expression in human SH-SY5Y cells at EC10 by qPCR method relative to beta-actin; format: functional
# [25] = system: SH-SY5Y; experiment: Effect on IFNG mRNA expression in human SH-SY5Y cells at EC10 by qPCR method relative to beta-actin; format: functional
# [26] = system: SK-N-SH; experiment: Effect on JUN mRNA expression in human SK-N-SH cells at EC10 by qPCR method relative to beta-actin; format: functional
# [27] = system: U-118-MG; experiment: Effect on EDNRA mRNA expression in human U118MG cells at EC10 by qPCR method relative to beta-actin; format: functional
# [28] = system: SK-N-SH; experiment: Effect on FGF2 mRNA expression in human SK-N-SH cells at EC10 by qPCR method relative to beta-actin; format: functional
# [29] = system: SH-SY5Y; experiment: Effect on OPRD1 mRNA expression in human SH-SY5Y cells at EC10 by qPCR method relative to beta-actin; format: functional
# [30] = system: SH-SY5Y; experiment: Effect on ADRB2 mRNA expression in human SH-SY5Y cells at EC10 by qPCR method relative to beta-actin; format: functional
# [31] = system: SK-N-SH; experiment: Effect on OPRD1 mRNA expression in human SK-N-SH cells at EC10 by qPCR method relative to beta-actin; format: functional
# [32] = system: SK-N-SH; experiment: Effect on AKT1 mRNA expression in human SK-N-SH cells at EC10 by qPCR method relative to beta-actin; format: functional
# [33] = target: Sphingosine 1-phosphate receptor 1 (Homo sapiens) (UniProt P21453); experiment: Agonist activity at sphingosine-1-phosphate receptor in human U118MG cells assessed as increase in cAMP level at EC10 by direct immunoassay; format: functional, cell-based; details: U-118-MG
# Chain of Sphingosine 1-phosphate receptor 1 (Homo sapiens) (P21453 whole entry): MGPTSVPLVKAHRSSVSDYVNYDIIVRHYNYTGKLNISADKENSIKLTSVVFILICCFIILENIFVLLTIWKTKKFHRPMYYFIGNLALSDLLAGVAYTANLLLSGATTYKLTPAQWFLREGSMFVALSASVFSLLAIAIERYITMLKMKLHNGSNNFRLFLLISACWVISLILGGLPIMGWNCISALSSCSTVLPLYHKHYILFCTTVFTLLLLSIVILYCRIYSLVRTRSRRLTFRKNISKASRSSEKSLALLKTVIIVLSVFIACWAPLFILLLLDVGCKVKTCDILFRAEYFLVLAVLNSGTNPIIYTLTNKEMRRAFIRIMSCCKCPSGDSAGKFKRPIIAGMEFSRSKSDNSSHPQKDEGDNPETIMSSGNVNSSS
# [34] = system: U-118-MG; experiment: Effect on EPHA1 mRNA expression in human U118MG cells at EC10 by qPCR method relative to beta-actin; format: functional
# [35] = system: U-118-MG; experiment: Effect on JUN mRNA expression in human U118MG cells at EC10 by qPCR method relative to beta-actin; format: functional
# [36] = system: SH-SY5Y; experiment: Effect on DRD2 mRNA expression in human SH-SY5Y cells at EC10 by qPCR method relative to beta-actin; format: functional
# [37] = system: U-118-MG; experiment: Effect on PIK3CG mRNA expression in human U118MG cells at EC10 by qPCR method relative to beta-actin; format: functional
# [38] = system: SH-SY5Y; experiment: Effect on NOS2 mRNA expression in human SH-SY5Y cells at EC10 by qPCR method relative to beta-actin; format: functional
# [39] = system: U-118-MG; experiment: Effect on IFNG mRNA expression in human U118MG cells at EC10 by qPCR method relative to beta-actin; format: functional
# [40] = system: U-118-MG; experiment: Effect on MAG mRNA expression in human U118MG cells at EC10 by qPCR method relative to beta-actin; format: functional
# [41] = system: SK-N-SH; experiment: Effect on NOS2 mRNA expression in human SK-N-SH cells at EC10 by qPCR method relative to beta-actin; format: functional
# [42] = system: SH-SY5Y; experiment: Effect on CCL3 mRNA expression in human SH-SY5Y cells at EC10 by qPCR method relative to beta-actin; format: functional
# [43] = system: SK-N-SH; experiment: Effect on STAT3 mRNA expression in human SK-N-SH cells at EC10 by qPCR method relative to beta-actin; format: functional
smiles,measurement,setting,value
CCCCCCCCc1ccc(CCC(N)(CO)CO)cc1 [FINGOLIMOD],fold change (FC),[1],-13.1489
same,fold change (FC),[2],-4.301
same,fold change (FC),[3],-6.428
same,fold change (FC),[4],-4.0965
same,fold change (FC),[5],-11.0378
same,fold change (FC),[6],-7.7644
same,fold change (FC),[7],-4.2052
same,fold change (FC),[8],-9.4316
same,fold change (FC),[9],-5.0806
same,fold change (FC),[10],-4.6974
same,fold change (FC),[11],-8.2392
same,fold change (FC),[12],-4.4134
same,fold change (FC),[13],-4.0629
same,fold change (FC),[14],-3.664
same,fold change (FC),[15],-3.5415
same,fold change (FC),[16],-2.6579
same,fold change (FC),[17],-4.2501
same,fold change (FC),[18],-5.7333
same,fold change (FC),[19],-8.1222
same,fold change (FC),[20],7.6112
same,fold change (FC),[21],-4.2945
same,fold change (FC),[22],-6.7945
same,fold change (FC),[23],-4.9203
same,fold change (FC),[24],4.3772
same,fold change (FC),[25],-5.1964
same,fold change (FC),[26],-2.7499
same,fold change (FC),[27],3.242
same,fold change (FC),[28],-7.3456
same,fold change (FC),[29],5.0193
same,fold change (FC),[30],-11.1967
same,fold change (FC),[31],4.9782
same,fold change (FC),[32],-12.2684
same,Activity,[33],Active
same,fold change (FC),[34],-3.7679
same,fold change (FC),[35],-3.0183
same,fold change (FC),[36],-9.8151
same,fold change (FC),[37],-3.7491
same,fold change (FC),[38],-3.9518
same,fold change (FC),[39],-5.5428
same,fold change (FC),[40],4.0174
same,fold change (FC),[41],-5.9976
same,fold change (FC),[42],-4.8232
same,fold change (FC),[43],-8.0243
